Source: patent US8129355B2, “Ketone ligands for modulating the expression of exogenous genes via an ecdysone receptor complex” (priority 2002, dated 2012)
Like-named read-outs stand apart in the source and are kept apart here.

Columns and labels:
[1] = target: T1, GAL4 DBD-CfEcR(DEF)/VP16AD-MmRXRE (Choristoneura fumiferana, UniProt O77240); test: cell-based; conditions: for 13B3 Rel Max FI: maximum fold induction at any concentration relative to that of GS-E ligand; for fold induction at 33 µM: CHO, read-out: Fold Induction Average, 13B3 Assay (33 μM)
T1 sequence (O77240 1-513): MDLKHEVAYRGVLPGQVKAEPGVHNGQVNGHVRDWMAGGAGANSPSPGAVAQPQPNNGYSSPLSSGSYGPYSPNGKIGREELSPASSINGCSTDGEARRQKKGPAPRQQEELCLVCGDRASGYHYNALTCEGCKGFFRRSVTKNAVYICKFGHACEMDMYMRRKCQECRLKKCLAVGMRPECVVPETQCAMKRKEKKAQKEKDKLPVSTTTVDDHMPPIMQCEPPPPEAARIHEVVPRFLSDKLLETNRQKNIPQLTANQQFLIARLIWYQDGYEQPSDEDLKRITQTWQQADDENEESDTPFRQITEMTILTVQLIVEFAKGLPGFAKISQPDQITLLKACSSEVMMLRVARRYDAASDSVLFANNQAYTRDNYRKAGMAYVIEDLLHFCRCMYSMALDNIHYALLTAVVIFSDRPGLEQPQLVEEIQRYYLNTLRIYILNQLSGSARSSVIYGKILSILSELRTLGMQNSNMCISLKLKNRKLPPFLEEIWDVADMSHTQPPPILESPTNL
Description: GAL4 DBD-CfEcR(DEF)/VP16AD-MmRXRE: The wild-type D, E, and F domains from spruce budworm Choristoneura fumiferana EcR (“CfEcR-DEF”; SEQ ID NO: 1) were fused to a GAL4 DNA binding domain (“Gal4 DBD1-147”; nucleotides 31 to 471 of SEQ ID NO: 2) and placed under the control of the SV40e promoter of pM vector (PT3119-5, Clontech, Palo Alto, Calif.). The D and E domains from Mus Musculus RXR (“MmRXR-DE”; SEQ ID NO: 10) were fused to the transactivation domain from VP16 (“VP16AD”; SEQ ID NO: 5) and placed under the control of the SV40e promoter of the pVP16 vector (PT3127-5, Clontech, Palo Alto, Calif.).
CHO cells were transienty transfected with transcription cassettes for GAL4 DBD-CfEcR(DEF) and for VP16AD-MmRXRE controlled by SV40e promoters. Stably transfected cells were selected using Hygromycin. Individually isolated CHO cell clones were transiently transfected with a GAL4 RE-luciferase reporter (pMR-Luc, Stratagene, La Jolla, Calif.). The 13B3 clone was selected using Zeocin.
Cells were trypsinized and diluted to a concentration of 2.5×10^4 cells mL. 100 μL of cell suspension was placed in each well of a 96 well plate and incubated at 37° C. under 5% CO2 for 24 h. Ligand stock solutions were prepared in DMSO and diluted 300 fold for all treatments. Dose response testing consisted of 8 concentrations ranging from 33 μM to 0.01 μM.
Luciferase reporter gene expression was measured 48 h after cell treatment using Bright-Glo™ Luciferase Assay System from Promega (E2650). Luminescence was detected at room temperature using a Dynex MLX microtiter plate luminometer.
Fold inductions were calculated from single dose testing by dividing relative light units (RLU) in ligand treated cells by RLU in DMSO treated cells. BC50s were calculated from dose response data using a three-parameter logistic model.

[2] = target: T2, Bombyx mori EcR (VP16 fusion, switch construct CVBE) with 6XEcRE LacZ reporter (Bombyx mori, UniProt P49881); test: Z3 assay: β-galactosidase (LacZ) reporter gene fold induction in stably transformed human 293 kidney cells (clone Z3); format: cell-based
T2 construct: expressed in transfected cells; host or cells: Human 293 kidney (HEK-293) cells, retrovirally infected, clone Z3
T2 sequence (P49881 86-606 limits assumed): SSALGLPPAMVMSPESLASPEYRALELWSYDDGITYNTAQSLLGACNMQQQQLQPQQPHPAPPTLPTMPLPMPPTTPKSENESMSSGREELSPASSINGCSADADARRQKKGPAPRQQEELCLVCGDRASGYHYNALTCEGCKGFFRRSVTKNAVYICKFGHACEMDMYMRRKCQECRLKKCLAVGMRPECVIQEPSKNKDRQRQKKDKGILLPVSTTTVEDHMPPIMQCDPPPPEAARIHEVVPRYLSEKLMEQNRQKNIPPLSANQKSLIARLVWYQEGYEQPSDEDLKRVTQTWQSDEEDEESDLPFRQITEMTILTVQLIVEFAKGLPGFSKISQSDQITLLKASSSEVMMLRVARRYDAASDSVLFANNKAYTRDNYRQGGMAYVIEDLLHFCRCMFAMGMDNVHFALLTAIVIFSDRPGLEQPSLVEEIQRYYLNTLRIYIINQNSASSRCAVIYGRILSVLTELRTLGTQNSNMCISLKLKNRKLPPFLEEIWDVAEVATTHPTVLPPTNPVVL
T2 sequence (P19793 1-462 partner): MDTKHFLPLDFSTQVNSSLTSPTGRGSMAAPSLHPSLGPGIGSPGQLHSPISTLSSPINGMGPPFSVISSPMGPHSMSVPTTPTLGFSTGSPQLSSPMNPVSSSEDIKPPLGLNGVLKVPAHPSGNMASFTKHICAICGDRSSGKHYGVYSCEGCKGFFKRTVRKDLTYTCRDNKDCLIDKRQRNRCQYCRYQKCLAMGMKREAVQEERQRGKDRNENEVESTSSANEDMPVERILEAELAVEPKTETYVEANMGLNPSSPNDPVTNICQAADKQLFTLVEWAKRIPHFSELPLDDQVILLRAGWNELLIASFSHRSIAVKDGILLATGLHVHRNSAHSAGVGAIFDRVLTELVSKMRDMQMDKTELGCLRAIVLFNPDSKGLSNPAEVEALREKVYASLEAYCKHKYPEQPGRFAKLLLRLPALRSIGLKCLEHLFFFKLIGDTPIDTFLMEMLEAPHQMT
Description: Dr. F. Gage provided a population of stably transformed cells containing CVBE and 6XEcRE as described in Suhr, S. T., Gil, E. B., Senut M. C., Gage, F. H. (1998) Proc. Natl. Acad. Sci. USA 95, 7999-804. Human 293 kidney cells, also referred to as HEK-293 cells, were sequentially infected with retroviral vectors encoding first the switch construct CVBE, and subsequently the reporter construct 6XEcRE Lac Z. The switch construct contained the coding sequence for amino acids 26-546 from Bombyx mori EcR (BE) (Iatrou) inserted in frame and downstream of the VP16 transactivation domain (VBE). A synthetic ATG start codon was placed under the control of cytomegalovirus (CVBE) immediate early promoter and flanked by long terminal repeats (LTR). The reporter construct contained six copies of the ecdysone response element (EcRE) binding site placed upstream of LacZ and flanked on both sides with LTR sequences (6XEcRE).
Dilution cloning was used to isolate individual clones. Clones were selected using 450 ug/mL G418 and 100 ng/mL puromycin. Individual clones were evaluated based on their response in the presence and absence of test ligands. Clone Z3 was selected for screening and SAR purposes.
Human 293 kidney cells stably transformed with CVBE and 6XEcRE lack were maintained in Minimum Essential Medium (Mediates, 10-010-CV) containing 10% FBS (Life Technologies, 26140-087), […] G418 (Mediates, 30-234-CR), and […] (Sigma, P-7255), at 37° C. in an atmosphere containing 5% CO2 and were subculture when they reached 75% confluence.
Z3 cells were seeded into 96-well tissue culture plates at a concentration of 2.5×10^3 cells per well and incubated at 37° C. in 5% CO2 for twenty-four hours. Stock solutions of ligands were prepared in DMSO. Ligand stock solutions were diluted 100 fold in media and 50 μL of this diluted ligand solution (33 μM) was added to cells. The final concentration of DMSO was maintained at […] in both controls and treatments.
Reporter gene expression was evaluated 48 hours after treatment of cells, β-galactosidase activity was measured using Gal Screen™ bioluminescent reporter gene assay system from Tropix (GSY1000).
Flanking both constructs are long terminal repeats, G418 and puromycin are selectable markers, CMV is the cytomegalovirus promoter, VBE is coding sequence for amino acids 26-546 from Bombyx mori EcR inserted downstream of the VP16 transactivation domain, 6×EcRE is six copies of the ecdysone response element, lacZ encodes for the reporter enzyme β-galactosidase. Suhr, S. T., Gil, E. B., Senut M. C., Gage, F. H. (1998) Proc. Natl. Acad. Sci. USA 95, 7999-804. Swevers, L., Drevet, J. R., Lunke, M. D., Iatrou, K. (1995) Insect Biochem. Mol. Biol. 25, 857-866.

[3] = average; dose response, three-parameter logistic model; read-out: Z3 LC50
[4] = maximum fold induction at any concentration relative to that of GS-E ligand
[5] = single dose 33 μM; ligand treated / DMSO treated cells
[6] = read-out: Fold Induction Average, Z3 Assay (33 μM)
[7] = read-out: Z3 LC50; average; dose response, three-parameter logistic model

Row | Structure (SMILES) | Fold Induction Average, Z3 Assay (33 μM) [2, 5] | Fold Induction Average, 13B3 Assay (33 μM) [1] | further results
1 | COc1cccc(C(=O)NC2(C(=O)c3ccccc3)CCCC2)c1C [Example 1] | 71 | – | 13B3 Rel Max FI [1]: 0.00; EC50 ([1]; read-out: 13B3 EC50, average, dose response, three-parameter logistic model): > 33 µM; Fold Induction Average, 13B3 Assay (33 μM) ([1]; single dose 33 μM, RLU ligand treated / RLU DMSO treated cells): 3; CC50 [2, 3]: 2.67 µM; Z3 Rel Max FI [2, 4]: 0.14
2 | COc1cccc(C(=O)NC2(C(=O)c3cccc(C)c3)CCCC2)c1C [Example 2] | – | – | EC50 [1]: > 33 µM; fold induction at 33 µM [1]: 2620; 13B3 Rel Max FI [1]: 0.24; Z3 Rel Max FI [2, 4]: 0.46; fold induction at 33 µM [2, 6]: 786; CC50 [2, 7]: 3.38 µM
3 | CCc1ccc(C(=O)NC2(C(=O)c3ccccc3)CCCC2)cc1 [Example 3] | – | – | EC50 [1]: > 33 µM; 13B3 Rel Max FI [1]: 0.00
4 | COc1cccc(C(=O)C2(NC(=O)c3cccc(OC)c3C)CCCC2)c1 [Example 5] | – | – | EC50 [1]: > 33 µM; 13B3 Rel Max FI [1]: 0.02
5 | COc1cccc(C(=O)NC2(C(=O)c3cccc(C)c3)CCC2)c1C [Example 6] | – | – | EC50 [1]: > 33 µM; fold induction at 33 µM [1]: 1; 13B3 Rel Max FI [1]: 0.00; Z3 Rel Max FI [2, 4]: 0.05; fold induction at 33 µM [2, 6]: 82; CC50 [2, 7]: 10.7 µM
6 | COc1cccc(C(=O)NC(C)(Cc2ccccc2)C(=O)c2cccc(C)c2)c1C (stereo not shown) [Example 8] | 15 | 2 | –
7 | COc1cccc(C(=O)NC2(C(=O)c3cccc(C)c3)CC2)c1C [Example 9] | 12 | 0 | –
8 | COc1cccc(C(=O)NC(C)(Cc2ccccc2)C(=O)c2ccc(C)cc2)c1C (stereo not shown) [Example 16] | 10 | 0 | –
9 | COc1cccc(C(=O)NC2(C(=O)c3ccc(F)c(C)c3)CC2)c1C [Example 19] | 6 | 0 | –
10 | Cc1c(C(=O)NC2(C(=O)c3ccccc3)CCCC2)ccc2c1OCO2 [Example 23] | 32 | 2 | –
11 | COc1cccc(C(=O)NC2(C(=O)c3ccc(C)cc3)CC2)c1C [Example 24] | 11 | 87 | –
12 | COc1cccc(C(=O)NC2(C(=O)c3cccc(C)c3)CCC3(CC2)OCCO3)c1C [Example 35] | 9 | 2 | –
13 | CCC(CC)(NC(=O)c1cccc(OC)c1C)C(=O)c1ccccc1C [Example 36] | 4 | 0 | –
14 | COc1cccc(C(=O)NC2(C(=O)c3ccccc3C)CCCC2)c1C [Example 39] | 30 | 24 | –
15 | COc1ccc(C(=O)C2(NC(=O)c3cccc(OC)c3C)CCCC2)cc1 [Example 41] | 4 | 2 | –
16 | COc1cccc(C(=O)NC2(C(=O)c3ccc4c(c3)OCO4)CCCC2)c1C [Example 43] | 3 | 2 | –
17 | COc1cccc(C(=O)NC2(C(=O)c3ccc4c(c3)OCO4)CCCCC2)c1C [Example 47] | 21 | 3 | –
18 | Cc1nc2ncc(C(=O)NC3(C(=O)c4ccccc4)CCCC3)c(C)n2n1 [Example 103] | – | 0 | –
19 | CCc1ccc(C(=O)NC2(C(=O)c3cc(C)cc(C)c3)CCCCC2)cc1 [Example 175] | – | – | CC50 [2, 3]: 1.51 µM; Z3 Rel Max FI [2, 4]: 0.63
